Measured values: ChEMBL document CHEMBL4507329, “Data for DCP probe BTZO-1” (2021)

Experiments:
[1] = target: MAP kinase-activated protein kinase 5 (Homo sapiens) (UniProt Q8IW41); conditions: Compound concentration 1000.0 nM
[2] = target: Alpha-1B adrenergic receptor (Homo sapiens) (UniProt P35368); conditions: Compound concentration 10.0 uM
[3] = target: STE20/SPS1-related proline-alanine-rich protein kinase (Homo sapiens) (UniProt Q9UEW8); conditions: Compound concentration 1000.0 nM
[4] = target: Bone morphogenetic protein receptor type-1B (Homo sapiens) (UniProt O00238); conditions: Compound concentration 1000.0 nM
[5] = target: Serine/threonine-protein kinase PLK2 (Homo sapiens) (UniProt Q9NYY3); conditions: Compound concentration 1000.0 nM
[6] = target: Dual specificity tyrosine-phosphorylation-regulated kinase 2 (Homo sapiens) (UniProt Q92630); conditions: Compound concentration 1000.0 nM
[7] = target: Cyclin-dependent kinase 5 (Homo sapiens) (UniProt Q00535); conditions: Compound concentration 1000.0 nM
[8] = target: Mu-type opioid receptor (Homo sapiens) (UniProt P35372); conditions: Compound concentration 10.0 uM
[9] = target: Serine/threonine-protein kinase/endoribonuclease IRE1 (Homo sapiens) (UniProt O75460); conditions: Compound concentration 1000.0 nM
[10] = test system: ALK tyrosine kinase receptor (Homo sapiens), Q9UM73 [C1156Y]; conditions: Compound concentration 1000.0 nM
[11] = target: MAP/microtubule affinity-regulating kinase 4 (Homo sapiens) (UniProt Q96L34); conditions: Compound concentration 1000.0 nM
[12] = target: Non-receptor tyrosine-protein kinase TYK2 (Homo sapiens) (UniProt P29597); conditions: Compound concentration 1000.0 nM
[13] = target: Serine/threonine-protein kinase Nek2 (Homo sapiens) (UniProt P51955); conditions: Compound concentration 1000.0 nM
[14] = target: Serine/threonine-protein kinase 38-like (Homo sapiens) (UniProt Q9Y2H1); conditions: Compound concentration 1000.0 nM
[15] = target: Peripheral plasma membrane protein CASK (Homo sapiens) (UniProt O14936); conditions: Compound concentration 1000.0 nM
[16] = target: Rho-associated protein kinase 1 (Homo sapiens) (UniProt Q13464); conditions: Compound concentration 1000.0 nM
[17] = target: Cyclin-dependent kinase 9 (Homo sapiens) (UniProt P50750); conditions: Compound concentration 1000.0 nM
[18] = target: Dual serine/threonine and tyrosine protein kinase (Homo sapiens) (UniProt Q6XUX3); conditions: Compound concentration 1000.0 nM
[19] = target: Serine/threonine-protein kinase 17A (Homo sapiens) (UniProt Q9UEE5); conditions: Compound concentration 1000.0 nM
[20] = target: Focal adhesion kinase 1 (Homo sapiens) (UniProt Q05397); conditions: Compound concentration 1000.0 nM
[21] = target: Inhibitor of nuclear factor kappa-B kinase subunit epsilon (Homo sapiens) (UniProt Q14164); conditions: Compound concentration 1000.0 nM
[22] = target: Tyrosine-protein kinase ZAP-70 (Homo sapiens) (UniProt P43403); conditions: Compound concentration 1000.0 nM
[23] = target: Serine/threonine-protein kinase PknB (Mycobacterium tuberculosis) (UniProt P9WI81); conditions: Compound concentration 1000.0 nM
[24] = target: Casein kinase II subunit alpha' (Homo sapiens) (UniProt P19784); conditions: Compound concentration 1000.0 nM
[25] = target: 5'-AMP-activated protein kinase catalytic subunit alpha-2 (Homo sapiens) (UniProt P54646); conditions: Compound concentration 1000.0 nM
[26] = target: Tyrosine-protein kinase CSK (Homo sapiens) (UniProt P41240); conditions: Compound concentration 1000.0 nM
[27] = target: Serine/threonine-protein kinase Nek6 (Homo sapiens) (UniProt Q9HC98); conditions: Compound concentration 1000.0 nM
[28] = target: Calcium/calmodulin-dependent protein kinase type 1G (Homo sapiens) (UniProt Q96NX5); conditions: Compound concentration 1000.0 nM
[29] = target: Cyclin-dependent kinase 11B (Homo sapiens) (UniProt P21127); conditions: Compound concentration 1000.0 nM
[30] = target: Serine/threonine-protein kinase MRCK alpha (Homo sapiens) (UniProt Q5VT25); conditions: Compound concentration 1000.0 nM
[31] = target: Ribosomal protein S6 kinase alpha-4 (Homo sapiens) (UniProt O75676); conditions: Compound concentration 1000.0 nM
[32] = target: Insulin receptor (Homo sapiens) (UniProt P06213); conditions: Compound concentration 1000.0 nM
[33] = target: Serine/threonine-protein kinase Sgk1 (Homo sapiens) (UniProt O00141); conditions: Compound concentration 1000.0 nM
[34] = target: Ephrin type-A receptor 5 (Homo sapiens) (UniProt P54756); conditions: Compound concentration 1000.0 nM
[35] = target: Phosphatidylinositol 4,5-bisphosphate 3-kinase catalytic subunit alpha isoform (Homo sapiens) (UniProt P42336); conditions: Compound concentration 1000.0 nM
[36] = target: Tyrosine-protein kinase Lck (Homo sapiens) (UniProt P06239); conditions: Compound concentration 1000.0 nM
[37] = target: Mitogen-activated protein kinase kinase kinase 12 (Homo sapiens) (UniProt Q12852); conditions: Compound concentration 1000.0 nM
[38] = target: Cyclin-dependent kinase-like 1 (Homo sapiens) (UniProt Q00532); conditions: Compound concentration 1000.0 nM
[39] = target: Serine/threonine-protein kinase Nek9 (Homo sapiens) (UniProt Q8TD19); conditions: Compound concentration 1000.0 nM
[40] = target: Serine/threonine-protein kinase LATS2 (Homo sapiens) (UniProt Q9NRM7); conditions: Compound concentration 1000.0 nM
[41] = target: 5'-AMP-activated protein kinase catalytic subunit alpha-1 (Homo sapiens) (UniProt Q13131); conditions: Compound concentration 1000.0 nM
[42] = target: Serine/threonine-protein kinase 32C (Homo sapiens) (UniProt Q86UX6); conditions: Compound concentration 1000.0 nM
[43] = target: Casein kinase I isoform alpha-like (Homo sapiens) (UniProt Q8N752); conditions: Compound concentration 1000.0 nM
[44] = target: Phosphatidylinositol 3-kinase catalytic subunit type 3 (Homo sapiens) (UniProt Q8NEB9); conditions: Compound concentration 1000.0 nM
[45] = target: Protein kinase C epsilon type (Homo sapiens) (UniProt Q02156); conditions: Compound concentration 1000.0 nM

Chain of Ephrin type-A receptor 5 (Homo sapiens) (P54756 whole entry, canonical isoform): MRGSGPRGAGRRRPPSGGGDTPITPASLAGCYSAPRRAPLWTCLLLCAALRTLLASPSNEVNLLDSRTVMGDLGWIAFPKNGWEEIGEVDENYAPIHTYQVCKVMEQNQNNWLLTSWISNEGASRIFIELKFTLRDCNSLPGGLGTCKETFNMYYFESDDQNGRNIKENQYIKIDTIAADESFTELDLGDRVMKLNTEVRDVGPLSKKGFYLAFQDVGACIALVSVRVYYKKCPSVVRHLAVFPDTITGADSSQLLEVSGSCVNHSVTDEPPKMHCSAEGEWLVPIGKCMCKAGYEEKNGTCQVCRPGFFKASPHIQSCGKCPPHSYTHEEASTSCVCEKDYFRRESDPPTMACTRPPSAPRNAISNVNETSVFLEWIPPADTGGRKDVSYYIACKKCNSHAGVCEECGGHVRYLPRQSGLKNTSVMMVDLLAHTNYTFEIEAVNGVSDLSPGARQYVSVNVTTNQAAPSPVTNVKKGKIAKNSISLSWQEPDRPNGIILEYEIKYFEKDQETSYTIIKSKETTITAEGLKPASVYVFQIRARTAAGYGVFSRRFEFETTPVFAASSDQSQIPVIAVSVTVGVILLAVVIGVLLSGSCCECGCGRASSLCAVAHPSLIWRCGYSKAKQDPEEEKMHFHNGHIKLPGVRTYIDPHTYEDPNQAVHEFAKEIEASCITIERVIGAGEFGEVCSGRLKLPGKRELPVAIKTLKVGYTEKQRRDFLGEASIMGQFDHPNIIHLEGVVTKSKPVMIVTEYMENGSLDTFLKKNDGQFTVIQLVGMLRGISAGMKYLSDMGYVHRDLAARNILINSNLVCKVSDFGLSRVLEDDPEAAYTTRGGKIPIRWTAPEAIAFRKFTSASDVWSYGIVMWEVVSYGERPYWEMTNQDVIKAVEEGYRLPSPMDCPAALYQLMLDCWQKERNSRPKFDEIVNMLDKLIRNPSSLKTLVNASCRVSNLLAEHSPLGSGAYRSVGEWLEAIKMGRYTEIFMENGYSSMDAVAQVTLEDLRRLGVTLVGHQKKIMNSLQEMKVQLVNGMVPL
Chain of Serine/threonine-protein kinase PLK2 (Homo sapiens) (Q9NYY3 whole entry, looked up): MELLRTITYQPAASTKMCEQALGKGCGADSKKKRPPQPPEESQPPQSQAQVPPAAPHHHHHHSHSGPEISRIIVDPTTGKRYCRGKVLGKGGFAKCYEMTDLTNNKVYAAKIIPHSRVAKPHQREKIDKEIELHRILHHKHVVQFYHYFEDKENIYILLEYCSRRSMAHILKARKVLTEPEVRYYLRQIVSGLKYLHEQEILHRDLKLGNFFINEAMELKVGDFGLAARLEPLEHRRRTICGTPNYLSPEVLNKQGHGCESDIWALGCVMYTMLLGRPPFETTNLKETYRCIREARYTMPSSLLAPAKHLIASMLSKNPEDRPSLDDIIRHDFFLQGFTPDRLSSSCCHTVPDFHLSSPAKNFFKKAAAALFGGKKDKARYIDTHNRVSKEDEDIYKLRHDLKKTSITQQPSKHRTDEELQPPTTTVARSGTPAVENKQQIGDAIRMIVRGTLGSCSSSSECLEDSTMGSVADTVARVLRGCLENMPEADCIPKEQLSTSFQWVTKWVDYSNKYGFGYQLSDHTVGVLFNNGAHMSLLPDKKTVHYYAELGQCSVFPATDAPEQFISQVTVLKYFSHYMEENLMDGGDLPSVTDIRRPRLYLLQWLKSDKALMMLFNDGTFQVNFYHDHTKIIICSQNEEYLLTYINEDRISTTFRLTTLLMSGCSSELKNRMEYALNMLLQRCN
Chain of Tyrosine-protein kinase CSK (Homo sapiens) (P41240 2-450 limits assumed): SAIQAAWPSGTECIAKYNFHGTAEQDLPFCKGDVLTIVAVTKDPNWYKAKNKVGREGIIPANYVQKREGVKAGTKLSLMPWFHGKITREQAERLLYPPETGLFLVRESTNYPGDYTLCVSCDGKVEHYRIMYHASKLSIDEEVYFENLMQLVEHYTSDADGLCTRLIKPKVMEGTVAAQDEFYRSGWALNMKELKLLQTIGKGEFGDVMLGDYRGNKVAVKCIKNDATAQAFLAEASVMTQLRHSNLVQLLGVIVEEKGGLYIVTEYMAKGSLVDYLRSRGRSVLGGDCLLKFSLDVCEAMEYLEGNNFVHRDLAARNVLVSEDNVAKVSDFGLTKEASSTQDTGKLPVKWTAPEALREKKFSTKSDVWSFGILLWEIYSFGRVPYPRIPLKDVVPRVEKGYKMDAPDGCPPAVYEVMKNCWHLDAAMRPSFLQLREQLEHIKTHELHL
Chain of MAP kinase-activated protein kinase 5 (Homo sapiens) (Q8IW41 whole entry): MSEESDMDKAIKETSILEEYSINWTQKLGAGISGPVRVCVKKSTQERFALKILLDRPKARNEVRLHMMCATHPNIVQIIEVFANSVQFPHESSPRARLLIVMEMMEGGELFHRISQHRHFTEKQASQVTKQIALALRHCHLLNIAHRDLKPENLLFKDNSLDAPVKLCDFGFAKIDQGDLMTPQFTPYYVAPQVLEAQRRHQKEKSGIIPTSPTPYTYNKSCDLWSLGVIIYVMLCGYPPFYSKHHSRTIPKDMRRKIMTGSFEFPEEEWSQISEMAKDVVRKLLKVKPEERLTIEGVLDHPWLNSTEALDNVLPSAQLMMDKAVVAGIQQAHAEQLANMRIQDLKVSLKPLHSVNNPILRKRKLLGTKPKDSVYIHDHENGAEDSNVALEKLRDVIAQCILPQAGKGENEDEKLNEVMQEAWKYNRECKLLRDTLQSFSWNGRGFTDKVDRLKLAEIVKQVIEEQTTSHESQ
Chain of Serine/threonine-protein kinase Nek6 (Homo sapiens) (Q9HC98 whole entry): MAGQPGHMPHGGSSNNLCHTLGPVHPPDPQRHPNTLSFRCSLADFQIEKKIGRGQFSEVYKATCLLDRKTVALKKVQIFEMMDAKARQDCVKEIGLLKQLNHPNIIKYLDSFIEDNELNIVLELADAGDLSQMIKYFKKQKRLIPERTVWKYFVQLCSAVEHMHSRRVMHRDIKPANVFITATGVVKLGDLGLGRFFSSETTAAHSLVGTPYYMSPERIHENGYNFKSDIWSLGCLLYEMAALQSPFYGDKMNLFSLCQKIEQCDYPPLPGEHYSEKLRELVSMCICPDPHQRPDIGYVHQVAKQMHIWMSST
Chain of Serine/threonine-protein kinase 32C (Homo sapiens) (Q86UX6 whole entry, canonical isoform): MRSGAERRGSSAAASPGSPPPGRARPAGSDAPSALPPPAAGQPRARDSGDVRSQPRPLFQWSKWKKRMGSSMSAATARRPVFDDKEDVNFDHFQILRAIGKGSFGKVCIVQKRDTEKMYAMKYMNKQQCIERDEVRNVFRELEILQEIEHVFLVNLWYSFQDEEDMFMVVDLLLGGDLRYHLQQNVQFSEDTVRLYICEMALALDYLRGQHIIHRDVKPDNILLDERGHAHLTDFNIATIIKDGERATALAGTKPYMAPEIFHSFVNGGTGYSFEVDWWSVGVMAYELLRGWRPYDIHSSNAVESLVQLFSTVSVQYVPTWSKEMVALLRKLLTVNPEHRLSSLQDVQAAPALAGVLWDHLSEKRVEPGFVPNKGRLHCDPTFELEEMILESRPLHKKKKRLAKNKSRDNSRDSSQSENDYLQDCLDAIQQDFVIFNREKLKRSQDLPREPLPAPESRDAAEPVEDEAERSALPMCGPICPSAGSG
Chain of Mitogen-activated protein kinase kinase kinase 12 (Homo sapiens) (Q12852 whole entry): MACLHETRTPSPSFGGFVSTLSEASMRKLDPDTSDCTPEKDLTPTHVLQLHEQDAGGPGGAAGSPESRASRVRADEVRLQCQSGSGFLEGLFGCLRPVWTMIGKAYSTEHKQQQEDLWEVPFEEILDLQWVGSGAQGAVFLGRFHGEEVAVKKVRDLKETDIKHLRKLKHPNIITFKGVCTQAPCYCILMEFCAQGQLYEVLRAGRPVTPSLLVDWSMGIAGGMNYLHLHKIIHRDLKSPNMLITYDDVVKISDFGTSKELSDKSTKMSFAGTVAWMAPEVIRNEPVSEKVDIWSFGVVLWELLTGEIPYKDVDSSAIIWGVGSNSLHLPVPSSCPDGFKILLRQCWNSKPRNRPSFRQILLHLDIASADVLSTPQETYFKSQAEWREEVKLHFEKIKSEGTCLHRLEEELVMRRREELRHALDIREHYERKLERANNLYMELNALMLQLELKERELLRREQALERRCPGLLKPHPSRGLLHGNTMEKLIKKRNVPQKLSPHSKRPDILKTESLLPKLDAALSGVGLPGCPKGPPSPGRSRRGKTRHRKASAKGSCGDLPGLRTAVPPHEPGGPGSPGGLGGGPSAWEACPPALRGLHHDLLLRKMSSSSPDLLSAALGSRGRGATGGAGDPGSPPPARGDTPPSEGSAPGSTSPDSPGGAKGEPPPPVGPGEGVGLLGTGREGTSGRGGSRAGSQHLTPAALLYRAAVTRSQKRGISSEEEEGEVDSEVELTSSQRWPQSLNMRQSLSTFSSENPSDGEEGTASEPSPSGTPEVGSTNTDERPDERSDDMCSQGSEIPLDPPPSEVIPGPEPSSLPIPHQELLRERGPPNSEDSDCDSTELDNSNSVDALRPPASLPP
Chain of Casein kinase II subunit alpha' (Homo sapiens) (P19784 whole entry, looked up): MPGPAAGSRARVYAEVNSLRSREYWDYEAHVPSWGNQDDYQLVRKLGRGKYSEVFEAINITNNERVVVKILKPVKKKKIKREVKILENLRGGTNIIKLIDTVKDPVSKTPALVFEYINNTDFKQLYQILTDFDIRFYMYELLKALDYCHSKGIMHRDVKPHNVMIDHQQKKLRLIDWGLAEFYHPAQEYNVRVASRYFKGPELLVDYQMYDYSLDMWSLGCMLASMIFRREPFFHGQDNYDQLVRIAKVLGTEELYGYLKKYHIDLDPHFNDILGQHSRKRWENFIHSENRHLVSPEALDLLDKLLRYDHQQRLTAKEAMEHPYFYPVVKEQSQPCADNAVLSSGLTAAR
Chain of Cyclin-dependent kinase-like 1 (Homo sapiens) (Q00532 whole entry): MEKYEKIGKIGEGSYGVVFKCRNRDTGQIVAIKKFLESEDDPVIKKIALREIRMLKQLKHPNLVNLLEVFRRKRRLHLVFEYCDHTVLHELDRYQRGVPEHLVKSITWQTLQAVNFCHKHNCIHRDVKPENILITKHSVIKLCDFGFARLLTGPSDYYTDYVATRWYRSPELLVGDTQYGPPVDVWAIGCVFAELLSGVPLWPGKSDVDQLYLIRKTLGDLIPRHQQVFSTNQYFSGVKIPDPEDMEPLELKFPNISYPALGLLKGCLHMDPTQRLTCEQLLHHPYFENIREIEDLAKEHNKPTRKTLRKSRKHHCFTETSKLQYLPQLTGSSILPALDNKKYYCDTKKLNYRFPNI

O=c1nc(-c2ccccn2)sc2ccccc12 [BTZO-1]
inactive: residual activity [1] 92% | inhibition [2] 9.84% | residual activity [3] 100% | residual activity [4] 75% | residual activity [5] 95% | residual activity [6] 100% | residual activity [7] 85% | inhibition [8] 3.52% | residual activity [9] 100% | residual activity [10] 100% | residual activity [11] 100% | residual activity [12] 98% | residual activity [13] 84% | residual activity [14] 66% | residual activity [15] 84% | residual activity [16] 100% | residual activity [17] 95% | residual activity [18] 88% | residual activity [19] 100% | residual activity [20] 90% | residual activity [21] 100% | residual activity [22] 100% | residual activity [23] 88% | residual activity [24] 92% | residual activity [25] 100% | residual activity [26] 100% | residual activity [27] 100% | residual activity [28] 100% | residual activity [29] 100% | residual activity [30] 91% | residual activity [31] 80% | residual activity [32] 100% | residual activity [33] 99% | residual activity [34] 94% | residual activity [35] 100% | residual activity [36] 95% | residual activity [37] 100% | residual activity [38] 87% | residual activity [39] 96% | residual activity [40] 79% | residual activity [41] 100% | residual activity [42] 100% | residual activity [43] 100% | residual activity [44] 82% | residual activity [45] 100%

O=C1NC(c2ccccn2)Sc2ccccc21 (stereo not given) [BTZO-4]
inactive: residual activity [1] 73% | inhibition [2] -5.82% | residual activity [3] 89% | residual activity [4] 71% | residual activity [5] 97% | residual activity [6] 99% | residual activity [7] 86% | inhibition [8] 6.47% | residual activity [9] 100% | residual activity [10] 84% | residual activity [11] 100% | residual activity [12] 86% | residual activity [13] 100% | residual activity [14] 58% | residual activity [15] 71% | residual activity [16] 82% | residual activity [17] 100% | residual activity [18] 92% | residual activity [19] 86% | residual activity [20] 79% | residual activity [21] 94% | residual activity [22] 90% | residual activity [23] 77% | residual activity [24] 100% | residual activity [25] 100% | residual activity [26] 100% | residual activity [27] 84% | residual activity [28] 100% | residual activity [29] 100% | residual activity [30] 84% | residual activity [31] 74% | residual activity [32] 88% | residual activity [33] 87% | residual activity [34] 85% | residual activity [35] 91% | residual activity [36] 80% | residual activity [37] 100% | residual activity [38] 75% | residual activity [39] 75% | residual activity [40] 70% | residual activity [41] 100% | residual activity [42] 88% | residual activity [43] 89% | residual activity [44] 99% | residual activity [45] 96%
